Experimental data reported in US20030114357A1, “Methods related to the A-C repeat Z-sequence upstream from the aldose reductase gene” (priority 2001, published 2003).

Columns and labels:
[1] = test system: subjects with painful, symmetrical polyneuropathy; experiment: Composite neuroelectrophysiology (NE) parameter (modified O'Brien score), double-blind study placebo vs zopolrestat, 12 week change; format: in vivo, human; conditions: placebo vs combined treatment groups (250 and 500 mg zopolrestat dose)
Excerpt: (§1) Diabetic neuropathy, a complication arising from diabetes mellitus, is an example of conditions that are mediated by having at least one allele of the (A-C)n repeat Z sequence associated with the aldose reductase gene wherein the value of n is less than 24. […] Such evaluation may be performed by measuring changes in nerve conduction velocity (NCV) in the following nerves: median motor, ulnar sensory, median sensory (both distal and proximal segments), peroneal motor and sural sensory. Testing is performed prior to the initiation of administration of the Agent and one or more times thereafter. An exemplary schedule for neuroelectrophysiology evaluation is prior to initiation of administration of the Agent and at weeks 12, 24 and 52 following initiation of administration.
(§2) Tables 1 and 2 illustrate the effect of administration of the aldose reductase inhibitor, zopolrestat, on NCV of subjects having one and two alleles of the Z sequence having less than 24 A-C repeats. […] The NCV results from Tables 1 and 2 where obtained according to the protocol described in Example 2 of the General Experimental Procedures.
Composite NE parameter is calculated according to the technique described in O'Brien, P. C., Biometrics, 40, 1079-1087 (1984). For ease of interpretation, the standard composite NE parameter of O'Brien is slightly modified for Tables 1 and 2. The standard O'Brien method would give values of 0 to 1. For the modified O'Brien score, the standard O'Brien value is reduced by 0.5 to give a value in the range of −0.5 to 0.5 with an expected value of 0. Values lower than 0 correspond to an overall composite NE decrease relative to the entire patient population, while values greater than 0 correspond to a relative increase.
(§3) The terms “1 short” and “2 short” as used in Tables 1 and 2 refers to the number of alleles found in each subject where n has a value of less than 24 for the (A-C)n repeat Z sequence. “1 short” refers to subjects having only one allele wherein n is less than 24. “2 short” refers to subjects having two alleles wherein n is less than 24. […]

[2] = test system: subjects with painful, symmetrical polyneuropathy; experiment: Peroneal motor nerve conduction velocity (NCV), double-blind study placebo vs zopolrestat, 12 week change; format: in vivo, human; conditions: placebo vs combined treatment groups (250 and 500 mg zopolrestat dose)
Excerpt: as §1, §2, §3
Nerve Conduction Velocity (“NCV”) is defined as the maximal speed in which Compound Action Potentials are propagated within a nerve, generally reflecting the activity in the fastest and largest neurons and calculated in meters per second by dividing distance in mm by Latency. […]
3. […] Skin temperature is measured prior to and at the conclusion of testing at sites midway between the stimulating and recording electrodes for each limb. Temperature is monitored and adjusted during testing using either a feedback controlled infrared radiant heater, a water bath or a temperature controlled blanket wrap. […]

O=C(O)Cc1nn(Cc2nc3cc(C(F)(F)F)ccc3s2)c(=O)c2ccccc12 [zopolrestat]
Composite NE Parameter (modified) 12 Week Change Mean Treatment Effect ([1]; Group 1 Short (only one Z-sequence allele n<24)): 0.04
Composite NE Parameter (modified) 12 Week Change Mean Treatment Effect ([1]; Group 2 Short (two Z-sequence alleles n<24)): 0.09
Composite NE Parameter (modified) 12 Week Change Mean Treatment Effect ([1]; Group Combined, range -0.5 to 0.5): 0.07
Peroneal Motor 12 Week Change Mean Treatment Effect ([2]; Group 1 Short (subjects with only one Z-sequence allele n<24)): 0.22
Peroneal Motor 12 Week Change Mean Treatment Effect ([2]; Group 2 Short (subjects with two Z-sequence alleles n<24)): 2.35
Peroneal Motor 12 Week Change Mean Treatment Effect ([2]; Group Combined (1 short + 2 short Z-sequence alleles, n<24), NCV, calculated in meters per second): 1.63
